Assay results reported in patent US20240342152A1, “Method of Treatment” (Vanda Pharmaceuticals Inc., priority 2022, published 2024).

Legend:
[1] = tested on: patients with schizophrenia; conditions: patients continuing on therapy past the titration period; cited from earlier work
[2] = tested on: patients with bipolar I disorder; experiment: Phase III clinical study of iloperidone in acute manic and mixed episodes associated with bipolar I disorder; format: in vivo, adults
Procedure: In a Phase III clinical study of iloperidone as a treatment of acute manic and mixed episodes associated with bipolar I disorder, approximately 400 volunteers with a history of bipolar disorder and suffering from a current episode of mania are randomized to receive either iloperidone or placebo in a 1:1 ratio. Treatment efficacy is assessed using the Young Mania Rating Scale (YMRS), a known rating scale of clinical severity in the core symptoms of mania, as well as the Clinician Global Impression of Severity (CGI-S) and the Clinician Global Impression of Change (CGI-C).
YMRS assessments are made at baseline and during days 7, 10, 14, 21, and 28 using the following key: • 0=reports no decrease in sleep; • 1=sleeping less than normal amount by up to one hour; • 2=sleeping less than normal by more than one hour; • 3=reports decreased need for sleep; and • 4=denies need for sleep.
Patients receive four weeks of double-blind treatment comprising the administration of 24 mg/d iloperidone b.i.d. (12 mg twice daily), 12 mg/d b.i.d. (6 mg twice daily) for poor metabolizers, or placebo. CYP2D6 non-poor metabolizers are titrated to a clinical dose of 24 mg/day (12 mg twice daily) by administering 1 mg twice per day on day 1, 3 mg twice per day on day 2, 6 mg twice per day on day 3, 9 mg twice per day on day 4, and 12 mg twice per day on day 5 and each day thereafter. CYP2D6 poor metabolizers are titrated to 12 mg/day (6 mg twice daily) by administering 1 mg twice per day on day 1, 3 mg twice per day on day 2, and 6 mg twice per day on day 3 and each day thereafter.

[3] = tested on: adults with schizophrenia or bipolar I disorder; experiment: Clinical study of tolerability of faster iloperidone titration (orthostatic hypotension monitoring); format: in vivo; conditions: n=12
Procedure: A clinical study of adults (n=12, age 18-65, inclusive) with schizophrenia or bipolar I disorder is conducted to assess the tolerability of a faster iloperidone titration scheme. Patients are assigned to one of two cohorts based on CYP2D6 phenotype.
CYP2D6 non-poor metabolizers are titrated to a clinical dose of 24 mg/day (12 mg twice daily) by administering 1 mg twice per day on day 1, 3 mg twice per day on day 2, 6 mg twice per day on day 3, 9 mg twice per day on day 4, and 12 mg twice per day on day 5. CYP2D6 poor metabolizers are titrated to 12 mg/day (6 mg twice daily) by administering 1 mg twice per day on day 1, 3 mg twice per day on day 2, and 6 mg twice per day on day 3. In each case, the target dose of 24 mg/day or 12 mg/day is continued until day 7.
Patients are monitored for OH by measuring blood pressure after lying supine for three minutes and two minutes after standing. OH is defined as a fall in systolic blood pressure of 20 mmHg or more or a fall in diastolic blood pressure of 10 mmHg or more.
The results are compared to historical placebo data from a prior study of the FDA-approved titration regimen.

[4] = endpoint (day 28), ITT population, N = 198

## COc1cc(C(C)=O)ccc1OCCCN1CCC(c2noc3cc(F)ccc23)CC1 [Iloperidone, 1-[4-[3-[4-(6-fluoro-1,2-benzisoxazol-3-yl)-1-piperidinyl]propoxy]-3-methoxyphenyl]ethanone]
[1]
  Efficacy in treating schizophrenia relative to haloperidol and risperidone: comparable to that of haloperidol and risperidone
[2]; N = 206
  Sedation reported as treatment-emergent adverse event: 5 (2.4) n (%)
  Somnolence reported as treatment-emergent adverse event: 11 (5.3) n (%)
[2]; YMRS assessment
  Onset of statistically significant YMRS benefit versus placebo: as early as the end of week 2
[2]; day 28, ITT population, p-value 0.000008
  YMRS Total Score, Diff (iloperidone vs placebo): −4.0
[2]; day 28, ITT population, p-value 0.0002
  CGI-C, Diff (iloperidone vs placebo): −0.5
[2]; day 28, ITT population, p-value 0.0005
  CGI-S, Diff (iloperidone vs placebo): −0.4
[2]; day 28, ITT population, p-value 0.1365
  MADRS Total Score, Diff (iloperidone vs placebo): −0.9
[2]; [4]
  CGI-C: 2.3
  CGI-S, change from baseline: −1.5
  MADRS Total Score, change from baseline: −2.7
[2]; endpoint (day 28), ITT population, N = 198, 24 mg/d b.i.d. (12 mg/d for CYP2D6 poor metabolizers)
  YMRS Total Score, change from baseline: −14.0
[2]; iloperidone-treated group (n=167), p 1.64 × 10^−6
  YMRS change associated with SNP rs62300864 (SHROOM3): 12.08 ± 2.43
[2]; iloperidone-treated group (n=167), p 2.48 × 10^−6
  YMRS change associated with SNP rs55837573 (RELN): −4.61 ± 0.94
[2]; iloperidone-treated group (n=167), p 5.27 × 10^−6
  YMRS change associated with SNP rs76876307 (FAT3): 15.44 ± 3.28
[2]; iloperidone-treated group (n=167), p 6.98 × 10^−6
  YMRS change associated with SNP rs1118464 (NAV2): −4.15 ± 0.89
[2]; placebo −0.95, p=0.008
  YMRS sleep component, least squares mean change from baseline to day 28: −1.26
[3]; compared to historical placebo data
  Tolerability of faster titration: well-tolerated
[3]; faster titration to 24 mg/day (12 mg/day poor metabolizers), to day 7, OH = fall in systolic ≥20 mmHg or diastolic ≥10 mmHg
  Patients meeting orthostatic hypotension (OH) criteria: Only one patient receiving iloperidone met the OH criteria
[3]; faster titration, to day 7
  Incidents of dizziness, syncope, or accidental trauma: no reported incidents of dizziness, syncope, or accidental trauma
  Other adverse events: no other adverse events
